For 1 compound, concentration results are on record in patent US20250135006A1, “AMPHIPHILIC TLR7/8 ADJUVANTS AND USES THEREOF” (Pfizer Inc., priority 2023, published 2025).

Where two headings read alike, the source gives them in different places.

The data set can be described thus: Lymph node localization of AMP adjuvants in female BALB/c mice (LC-MS). The format is in vivo. The following applies: mouse, 2 nmol intramuscular; for concentration at 4 h: 4 h post injection; for concentration at 48 h: 48 h post injection. Here is the method: Test compounds were prepared at a concentration of 40 uM in phosphate-buffered saline (pH 7.4)+0.1% polysorbate 80, and 50 uL (2 nmol) of each was administered by intramuscular injection into the right hind leg muscle (gastrocnemius) of female BALB/c mice. Lymph nodes (popliteal, inguinal) were collected from 5 mice per group at 4 h and 48 h post injection, snap frozen in liquid nitrogen, and stored at −80C until analysis. Blood was also collected via cardiac puncture at 4 h and 48 h post injection and centrifuged in EDTA-coated tubes to yield plasma which was stored at −80C until analysis. AMP adjuvant concentrations in each sample were quantified by liquid chromatography-mass spectrometry (LC-MS).
A standard curve containing the test compound was prepared in control mouse plasma before extraction with protein precipitation. Muscle samples were weighed and diluted in 4× 60:40 Isopropanol (IPA):Water. Lymph node samples were assumed to be 1 mg and were diluted 50× in […] 60:40 IPA:Water. Zirconium beads were added to tissue samples, followed by shaking in a bead beater to yield tissue homogenate. For plasma analysis, 20 ml of test sample or standard was added followed by 120 ml of acetonitrile containing internal standard (Simvastatin at 300 ng/ml). Tissue homogenate was prepared for analysis using a mixed matrix approach where test tissue samples (20 ml) were matrix matched with control plasma, and a plasma standard curve was matrixed matched with control mouse tissue. Internal standard was added as described above. Samples were vortexed for 1 min, then centrifuged at 3000 rpm for 5 min. 50 ml of supernatant was removed and transferred to a clean 96 well block, 150 ml of 0.1% formic acid in water was added, block was vortexed, centrifuged and 15 ml was injected on the LC/MS for analysis.
An initial mobile phase composition of 5% B was ramped to 95% in 2.0 minutes, held at 95% for 0.3 minutes, and then returned to initial 5% B for 0.3 minutes re-equilibration. The total analysis time for each sample was 3 minutes.
Data was collected on an AB Sciex API6500 (QTRAP) mass spectrometer using positive Turbo IonSpray™ electrospray ionization (ESI) and multiple reaction monitoring (MRM) mode. Typical source conditions, heated capillary temperature, gas1, gas2, and curtain gas were set at 600C, 50, 50, and 10 respectively. Transitions for Compound 1, Compound 2, and internal standard Simvastatin were m/z 1129® 923 for Compound 1, m/z 1172® 956 for Compound 2 and m/z 419® 285 for internal standard Simvastatin respectively. Data acquisition and processing was carried out with Analyst software version 1.7.

Setting [1] is: inguinal lymph node, read-out: concentration in the inguinal lymph node.
Setting [2] is: plasma, read-out: concentration in plasma.
The mark [3] stands for this setting: popliteal lymph node, read-out: concentration in the popliteal lymph node.

Turning to `CCCCc1nc2c(N)nc3cc(CCCN4CCN(C(=O)CCOCCOCCOCCOCCOCCOCCOCCOCCOCCOCCOCCOCCOCCOCCOCCOCCOCCOCCOCCOCCOCCOCCOCCOCCNC(=O)CCOCCOCCOCCOCCNC(=O)CCCOc5c(C)c(C)c6c(c5C)CC[C@@](C)(CCC[C@H](C)CCC[C@H](C)CCCC(C)C)O6)CC4)ccc3c2n1CC(C)(CO)CO` [Compound 2, N-{75-[4-(3-{4-amino-2-butyl-1-[3-hydroxy-2-(hydroxymethyl)-2-methylpropyl]-1H-imidazo[4,5-c]quinolin-7-yl}propyl)piperazin-1-yl]-75-oxo-3,6,9,12,15,18,21,24,27,30,33,36,39,42,45,48,51,54,57,60,63,66,69,72-tetracosaoxapentaheptacont-1-yl}-17-oxo-20-({(2R)-2,5,7,8-tetramethyl-2-[(4R,8R)-4,8,12-trimethyltridecyl]-3,4-dihydro-2H-chromen-6-yl}oxy)-4,7,10,13-tetraoxa-16-azaicosan-1-amide], the concentration at 4 h amounted to 16600 ± 6920 ng/g under setting [1], 1100 ± 305 ng/mL under setting [2] and 35300 ± 16800 ng/g under setting [3]. Also, the concentration at 48 h runs as follows: under setting [1], 17000 ± 3320 ng/g; under setting [2], under 25 ng/mL; under setting [3], 23200 ± 7820 ng/g.
